Measurements taken from patent US12678509B2, “Inhibitor of apoptosis (IAP) protein antagonists” (Sanford Burnham Prebys Medical Discovery Institute, priority 2019, dated 2026).

What was measured:
[1] = Pharmacokinetic study in mice, snapshot PK; type: in vivo; conditions: female, C57BL/6J, mouse, plasma, ip, one hour after i.p. injection of 10 mg/kg
Method: (§1) All animal procedures were approved by the Sanford Burnham Prebys Medical Discovery Institute Institutional Animal Care and Use Committee and were performed according to the NIH guidelines for the Care and Use of Laboratory Animals. Adult female C57BL/6J were purchased from JAX laboratories and housed with free access to food and water on a 12 h light/dark cycle. Compounds were formulated in 5% DMSO, 10% Tween-80, and 85% dH2O and injected intraperitoneally (i.p.) into mice at doses of 10 mg/kg. For snapshot PK analysis, blood samples were collected retro-orbitally one hour after injection and for the time course PK study, blood samples were collected at 15 min, 30 min, 1 h, 2 h, 4 h, 6 h, 24 h time points. For the blood samples plasma was separated by centrifugation. Plasma samples were extracted with acetonitrile:water 4:1 with 0.1% formic acid containing indometacin as an internal standard. Samples were centrifuged and supernatants were diluted with acetonitrile:water and analyzed via LC-MS/MS on a Shimadzu Nexera X2 HPLC coupled to an AB Sciex 6500 QTRAP.
Plasma exposure of selected compounds at 1 h compared.
Plasma levels of parent compound determined one hour after i.p. injection of 10 mg/kg

[2] = test system: AML-SH-074; assay: Cell viability in patient derived AML samples (CellTiterGlo, 72 h); type: cell-based, human; conditions: for IC50: Homo sapiens, 72 h, read-out: AML-SH-074 IC50; for AML-SH-074 Efficacy: patient derived AML sample AML-SH-074, 72 h, cell viability at max. concentration
Method: (§2) Patient AML samples were gathered (under IRB 13-6180) from Scripps MD Anderson, La Jolla, CA Fresh blood samples were subjected to gradient density centrifugation with Ficoll-Paque™ PLUS (17-1440-02, GE Healthcare) and peripheral blood mononuclear cells purified as per manufacturer's protocol.
(§3) 75 nL of 1000× serially diluted IAP inhibitors were spotted in triplicate onto 384-well tissue culture treated plates (Greiner) using a Labcyte Echo acoustic dispensing device. Patient-derived AML cells were maintained in mTeSR1^+1× supplements (Stemcell Technologies) and penicillin/streptomycin/L-glutamine (Omega Scientific Inc.) and Fungizone (HyClone). 25 μL of cell dilution were plated into 384-well plate containing the drugs and incubated for 72 h. Cell viability was assessed by adding 25 μL CellTiterGlo (Promega Corp.) on a Synergy 2 plate reader with Gen5 software (Biotek). % viability was calculated by normalizing luminescence to vehicle only controls (DMSO) in Microsoft Excel and plotted using GraphPad Prism 8. The IC50 values were calculated using log(inhibitor) vs. response—Variable slope (four parameters) equation. (FIG. 6)

[3] = test system: AML-SH-075; assay: as above; type: cell-based, human; conditions: for IC50: Homo sapiens, 72 h, read-out: AML-SH-075 IC50; for AML-SH-075 Efficacy: patient derived AML sample AML-SH-075, 72 h, cell viability at max. concentration
Method: as §2, §3

[4] = test system: AML-SH-065; assay: as above; type: cell-based, human; conditions: for IC50: Homo sapiens, 72 h, read-out: AML-SH-065 IC50; for AML-SH-065 Efficacy: patient derived AML sample AML-SH-065, 72 h, cell viability at max. concentration
Method: as §2, §3

[5] = test system: MOLM 13; assay: Cell viability (CellTiter-Glo), 6-day compound treatment; type: cell-based, Human; conditions: Homo sapiens, MOLM-13, 144 h, read-out: MOLM 13 Viability 6 d IC50
Method: (§4) The compound 18a was tested in 16 different cell lines. For 6-day compound treatment 1700 cells per well were plated in a 384-well plate (Corning #781098) and incubated overnight at 37° C./5% CO2. The following day, compounds in 10-fold dilutions were added to the plates and the plates were incubated for 6 days. Afterwards, 20 μL CellTiter-Glo reagent (Promega, #G7570) was added to each well outside of the incubator and the plates were read for luminescence on a Spark® multimode microplate reader (Tecan). Data was fit in GraphPad Prism 8 to a nonlinear regression curve to determine the IC50 of the compounds. […]

[6] = Pharmacokinetic study in mice, time course PK; type: in vivo; conditions: female, C57BL/6J, mouse, IP dose 10 mg/kg, plasma
Method: as §1
In vivo pharmacokinetic data for compound 18m in mice. Compound was formulated in 5% DMSO, 10% Tween 80 and water and administered by intraperitoneal injection.

[7] = target: BIR3 domain of cIAP2 (Homo sapiens, UniProt Q13489); assay: Fluorescence polarization assay; type: binding; conditions: SMAC-FITC probe, Ki calculated from IC50
BIR3 domain of cIAP2, sequence (Q13489 238-349 limits assumed): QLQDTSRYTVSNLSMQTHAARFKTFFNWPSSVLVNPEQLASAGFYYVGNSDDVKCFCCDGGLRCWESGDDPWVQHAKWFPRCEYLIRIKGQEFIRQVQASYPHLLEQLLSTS
Method: (§5) Binding of compounds to ML-IAP and BIR3 domain of cIAP1, cIAP2 and XIAP was determined by fluorescence polarization. Assay buffer was 100 mM KH2PO4 at pH 7.5, 50 μM ZnSO4, 1 mM TCEP (Tris(2-carboxyethyl)phosphine hydrochloride) and 50 nM SMAC-FITC probe (AbuRPF-K(5-Fam)-NH2) as described by Z. Nikolovska-Coleska et al.^9. cIAP1 and XIAP were present at 800 nM while cIAP2 and MLIAP were present at 1.5 μM. Compounds in 3-fold dilutions were added to the plates ranging from 30 μM to 1.5 nM. Assays were run in 384-well black plates read (Greiner Bio-One #784076) in an Analyst in fluorescence polarization mode with excitation at 485 nm and emission at 535 nm. Data was fit to a nonlinear regression curve in GraphPad Prism 8 to determine the IC50 values of the compounds. Ki's were then calculated from the IC50 values using equation: Ki=[I]50/([L]50/Kd+[P]0/Kd+1) formulated by Z. Nikolovska-Coleska et al.

[8] = target: T1, ML-IAP (Homo sapiens, UniProt Q96CA5); assay: Fluorescence polarization assay; type: binding; conditions: SMAC-FITC probe, Ki calculated from IC50
T1 sequence (Q96CA5 1-298): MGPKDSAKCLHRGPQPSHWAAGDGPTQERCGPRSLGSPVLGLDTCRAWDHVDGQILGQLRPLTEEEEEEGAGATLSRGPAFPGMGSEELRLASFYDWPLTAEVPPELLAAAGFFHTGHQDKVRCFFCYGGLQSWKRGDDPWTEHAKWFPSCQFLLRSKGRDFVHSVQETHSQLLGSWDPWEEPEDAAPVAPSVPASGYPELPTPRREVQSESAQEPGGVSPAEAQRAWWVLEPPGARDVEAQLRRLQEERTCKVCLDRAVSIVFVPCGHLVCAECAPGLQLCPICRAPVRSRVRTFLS
Method: as §5

[9] = target: BIR3 domain of cIAP1 (Homo sapiens, UniProt Q13490); assay: Fluorescence polarization assay; type: binding; conditions: SMAC-FITC probe, Ki calculated from IC50
BIR3 domain of cIAP1, sequence (Q13490 253-363 limits assumed): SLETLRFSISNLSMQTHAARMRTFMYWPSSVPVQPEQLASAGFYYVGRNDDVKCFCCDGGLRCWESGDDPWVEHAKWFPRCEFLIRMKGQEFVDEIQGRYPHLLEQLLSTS
Method: as §5

[10] = target: BIR3 domain of XIAP (Homo sapiens, UniProt P98170); assay: Fluorescence polarization assay; type: binding; conditions: SMAC-FITC probe, Ki calculated from IC50
BIR3 domain of XIAP, sequence (P98170 241-356 limits assumed): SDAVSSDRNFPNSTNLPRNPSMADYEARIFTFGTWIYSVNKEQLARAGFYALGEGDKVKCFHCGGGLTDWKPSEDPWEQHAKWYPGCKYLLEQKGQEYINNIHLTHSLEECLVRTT
Method: as §5

[11] = test system: SKOV-3; assay: Cell viability (CellTiter-Glo), 48 hrs; type: cell-based; conditions: Homo sapiens, SK-OV-3, 48 h, read-out: SKOV-3 Viability 48 h IC50
Method: One thousand seven hundred cells per well were plated in a 384 well plate and incubated overnight at 37° C./5% CO2. The following day, compounds in 10-fold dilutions were added to the plates and the plates returned to the incubator for 48 hrs. 48 hrs later, plates were removed to the bench and 20 μL CellTiter-Glo reagent was added to each well and the plates were read for luminescence on a Spark® multimode microplate reader (Tecan). Data were fit using PRISM to a nonlinear regression curve to determine the IC50 of the compounds.

[12] = test system: latently infected cell line Jurkat 2D10; assay: HIV Jurkat 2D10 cells GFP+ assay (reversal of HIV latency); type: cell-based; conditions: Homo sapiens, Jurkat, 48 h, read-out: Jurkat 2D10 GFP+ EC50
Method: Several compounds (Table 5) were tested for their efficacy in the reversal of HIV latency in the latently infected cell line Jurkat 2D10. Jurkat 2D10 cells were treated with different doses of the compounds, or one of the following compounds: BV-6, SM-164, Birinapant, LCL-161, GDC-0152, AT-406 for 48 hours. Reversal of HW latency was evaluated by analyzing GFP expression using flow cytometry. Induction of GFP expression was compared to baseline GFP levels detected in the absence of treatment.

[13] = test system: NB-4; assay: Cell viability (CellTiter-Glo); type: cell-based, Human; conditions: Homo sapiens, NB-4, 72 h, read-out: NB-4 Viability 72 h IC50
Method: as §4, with “The following day, compounds in 10-fold dilutions were added to the plates and the plates were incubated for 6 days.” left out

| SMILES | concentration at 1 h [1] [µM] | IC50 [2] [nM] | AML-SH-074 Efficacy [2] | IC50 [3] [nM] | AML-SH-075 Efficacy [3] | IC50 [4] [nM] | AML-SH-065 Efficacy [4] | IC50 [5] [nM] | AUC(0-t) [6] [µM·h] | Cmax [6] [µM] | Tmax [6] [h] | half-life ([6]; terminal half-life) [h] | Ki [7] [nM] | Ki [8] [nM] | Ki [9] [nM] | Ki [10] [nM] | IC50 [11] [nM] | EC50 [12] [nM] | IC50 [13] [nM] |
| --- | --- | --- | --- | --- | --- | --- | --- | --- | --- | --- | --- | --- | --- | --- | --- | --- | --- | --- | --- |
| CC[C@H](NC)C(=O)N[C@H]1CCS[C@H]2CC(C)(C)[C@@H](C(=O)N[C@H]3c4ccccc4C[C@H]3OCC#CC#CCO[C@@H]3Cc4ccccc4[C@@H]3NC(=O)[C@H]3N4C(=O)[C@@H](NC(=O)[C@H](CC)NC)CCS[C@H]4CC3(C)C)N2C1=O [Compound 18m, [(1S)-1-{[(4S,7S,9aS)-7-{[(1S,2R)-2-[(6-{[(1S,2R)-1-[(4S,7S,9aS)-8,8-Dimethyl-4-[(2S)-2-(methylazaniumyl)butanamido]-5-oxo-octahydropyrrolo[2,1-b][1,3]thiazepine-7-amido]-2,3-dihydro-1H-inden-2-yl]oxy}hexa-2,4-diyn-1-yl)oxy]-2,3-dihydro-1H-inden-1-yl]carbamoyl}-8,8-dimethyl-5-oxo-octahydropyrrolo[2,1-b][1,3]thiazepin-4-yl]carbamoyl}propyl](methyl)azanium dichloride] | 6.59 | 100 to 1000 | I (I < 10%) | 10 to 100 | I (I < 10%) | < 10 | I (I < 10%) | 10 to 100 | 18.1 | 6.6 | 1 | 3 | 50 to 100 | 50 to 100 | ≤ 50 | ≤ 50 | < 10 | 1 to 10 | – |
| CN[C@@H](C)C(=O)N[C@H]1CCS[C@H]2CC(C)(C)[C@@H](C(=O)N[C@H]3c4ccccc4C[C@H]3OCc3ccc(CO[C@@H]4Cc5ccccc5[C@@H]4NC(=O)[C@H]4N5C(=O)[C@@H](NC(=O)[C@H](C)NC)CCS[C@H]5CC4(C)C)cc3)N2C1=O [Compound 18g, (2S)-1-{[(4S,7S,9aS)-7-{[(1S,2R)-2-{[4-({[(1S,2R)-1-({[(4S,7S,9aS)-8,8-Dimethyl-4-{[(2S)-2-(methylammonio)propanoyl]amino}-5-oxooctahydropyrrolo[2,1-b][1,3]thiazepin-7-yl]carbonyl}amino)-2,3-dihydro-1H-inden-2-yl]oxy}methyl)benzyl]oxy}-2,3-dihydro-1H-inden-1-yl]carbamoyl}-8,8-dimethyl-5-oxooctahydropyrrolo[2,1-b][1,3]thiazepin-4-yl]amino}-N-methyl-1-oxopropan-2-ammonium dichloride] | 2.69 | 100 to 1000 | I (I < 10%) | 10 to 100 | I (I < 10%) | 10 to 100 | I (I < 10%) | 10 to 100 | – | – | – | – | 50 to 100 | 50 to 100 | ≤ 50 | ≤ 50 | < 10 | 1 to 10 | < 10 |
| CN[C@@H](C)C(=O)N[C@H]1CCS[C@H]2CC(C)(C)[C@@H](C(=O)N[C@H]3c4ccccc4C[C@H]3OCC#Cc3ccc(CO[C@@H]4Cc5ccccc5[C@@H]4NC(=O)[C@H]4N5C(=O)[C@@H](NC(=O)[C@H](C)NC)CCS[C@H]5CC4(C)C)cc3)N2C1=O [Compound 18e, (2S)-1-{[(4S,7S,9aS)-7-{[(1S,2R)-2-({3-[4-({[(1S,2R)-1-({[(4S,7S,9aS)-8,8-Dimethyl-4-{[(2S)-2-(methylammonio)propanoyl]amino}-5-oxooctahydropyrrolo[2,1-b][1,3]thiazepin-7-yl]carbonyl}amino)-2,3-dihydro-1H-inden-2-yl]oxy}methyl)phenyl]prop-2-ynyl}oxy)-2,3-dihydro-1H-inden-1-yl]carbamoyl}-8,8-dimethyl-5-oxooctahydropyrrolo[2,1-b][1,3]thiazepin-4-yl]amino}-N-methyl-1-oxopropan-2-ammonium dichloride] | 6.2 | 100 to 1000 | I (I < 10%) | 1000 to 10000 | I (I < 10%) | 10 to 100 | I (I < 10%) | 100 to 1000 | – | – | – | – | 100 to 200 | 100 to 200 | 50 to 100 | ≤ 50 | < 10 | < 1 | 10 to 100 |
